Square brackets hold non-standard residues; d marks the D form. Ends that are not written are not given here. Peptide text beside a SMILES is read from it. 4Pal = N[C@@H](Cc1ccncc1)C(=O)O; Met(O) = CS(=O)CC[C@H](N)C(=O)O; SeMet = C[Se]CC[C@H](N)C(=O)O; Nle = CCCC[C@H](N)C(=O)O
Experiments:
Assay type in all cases: biochemical
[1] = biological target: T1, human JMJD7 (Homo sapiens, UniProt P0C870); experiment: MALDI-TOF MS JMJD7 inhibition assay; settings: 200 nM JMJD7 preincubated 15 min with peptide (1 nM–150 μM); 5 μM DRG1-Lys (17–40) substrate, 10 μM 2OG, 25 min, room temperature, Tris pH 7.5, MALDI MS; duplicate (n = 2), ± SE; read-out: IC50 (JMJD7 inhibition, with 15 min preincubation)
T1 construct: human JMJD7 (residues 1–316) with an N‐terminal His6‐tag; His6 (N); made in house; host or cells: Escherichia coli Rosetta (DE3)

[2] = biological target: T1, human JMJD7; experiment: LC-MS assay of JMJD7-catalyzed hydroxylation/oxidation of DRG1 peptides; settings: for extent of hydroxylation by JMJD7 at higher 2OG concentration / degree of oxidation (+16 Da) of cysteine/methionine analog peptides by JMJD7: 2 μM JMJD7, 10 μM peptide; for extent of hydroxylation by JMJD7 at higher 2OG concentration: 20 μM 2OG, pH 7.5, 2 h incubation; for fate of the JMJD7 C3-hydroxylation product: 2 h; for extent of hydroxylation (+16 Da) by JMJD7: standard conditions: 2 μM JMJD7, 10 μM DRG1 peptide, room temperature
Description: Initial assays were carried out by incubation of purified recombinant (Markolovic et al., [2018]) human JMJD7 (2 μM) in the presence of a DRG1 derived peptide (10 μM), 2OG (10 μM), ferrous ammonium sulfate (FAS, 10 μM), and L‐ascorbate (LAA, 100 μM) in Tris buffer at pH 7.5 for 2 h at room temperature. Potential conversion to a hydroxylated product (+16 Da mass shift) was monitored by liquid‐chromatography‐mass‐spectrometry (LC–MS). […] The assay results also implied that DRG1‐Orn was hydroxylated, but to a lower extent (~21%) than DRG1‐Lys. […] The alcohol‐containing peptide hydroxynorleucine (DRG1‐HNle), was hydroxylated at relatively low levels (~24%), implying that H‐bonding interactions and positive charge of the N^ɛ‐amino group of lysine are important for efficient binding and catalysis, but that a neutral alcohol can still be accommodated at the active site (Figure 3f) (Markolovic et al., [2018]).
All reagents were procured from Sigma Aldrich. 2‐Oxoglutarate (2OG, 10 mM) and L‐ascorbic acid (LAA, 50 mM) solutions were prepared freshly by dissolving the solids in deionized water. Ferrous ammonium sulfate (FAS) solution was prepared freshly by dissolving FAS at 400 mM in 20 mM HCl with subsequent dilution to 1 mM using deionized water. JMJD7 assays using DRG1 (16–40) based peptides were performed with the following conditions: (i) 2 or 5 μM JMJD7, 10 μM DRG1 peptide, 100 μM LAA, 10 μM FAS, 10 μM 2OG in mM 50 Tris‐buffer (pH 7.5), (ii) 2 μM JMJD7, 10 μM DRG1 peptide, 100 μM LAA, 10 μM FAS, 20 μM 2OG in mM 50 Tris‐buffer (pH 7.5). Reactions were initiated by addition of enzyme to the cosubstrate/substrate solution in a final reaction volume of 50 μL with 2 h incubation at room temperature. A positive control reaction containing enzyme and a validated peptide substrate was included in all screening studies. After 2 h, reactions were stopped by addition of 5 μL of 10% (v/v) LC–MS grade formic acid (Fisher Scientific) and transferred to a 96 well plate (Agilent). Intact mass peptide analysis was performed by LC–MS using an Agilent 1290 infinity II LC system equipped with an Agilent 1290 multisampler and an Agilent 1290 high speed pump and connected to an Agilent 6550 accurate mass iFunnel quadrupole time of flight (Q‐TOF) mass spectrometer. The reaction mixture (4 μL) was injected and loaded onto a ZORBAX RRHD Eclipse Plus C18 column (Agilent). Solvent A consisted of LC–MS grade water containing 0.1% (v/v) formic acid and solvent B consisted of MeCN containing 0.1% (v/v) formic acid. Peptides were separated using a step wise gradient (0 min – 95% solvent A, 1.0 min – 80% solvent A, 3.0 min – 45% solvent A, 4.0 min – 45% solvent A, 5.0 min – 0% solvent A, 6.0 min – 0% solvent A, 7.0 min – 95% solvent A). This was followed by a 3 min elution with 95% solvent A to re‐equilibrate the column. Flow rates were 0.2 mL/min. The mass spectrometer was operated in the positive ion mode with a drying gas temperature (280°C), drying gas flow rate (13 L min^−1), nebulizer pressure (40 psig), sheath gas temperature (350°C), sheath gas flow rate (12 L min^−1), capillary voltage (4000 V), nozzle voltage (1000 V). Data were analyzed using Agilent MassHunter Qualitative Analysis (Version B.07.00) software.

[3] = biological target: T1, human JMJD7; experiment: SPE-MS time-course and steady-state kinetics of JMJD7-catalyzed hydroxylation; settings: for k cat/K m / k cat / K m: SPE-MS, DRG1 peptide 0.1–5.0 μM, 2OG 20 μM, FAS 10 μM, LAA 100 μM, JMJD7 100 nM; for k cat: in min^-1; for K m: in µM (unit assumed)
Description: Having shown that introduction of γ‐thialysine and γ‐azalysine residues into DRG1 peptides generates substrates that are efficiently hydroxylated by JMJD7, giving nascent products that fragment to give formylglycine, we explored whether these two peptides could compete with the DRG1‐Lys substrate for JMJD7 catalysis. The reactions of DRG1‐Lys, DRG1‐CysNH2 and DRG1‐LysN (1.0 μM) by JMJD7 (50 nM) were investigated as a function of time using SPE‐MS assays.
To quantify the relative efficiencies of DRG1‐Lys and the substrate analog DRG1‐LysE, we carried out kinetics analyses using SPE‐MS assays as the levels of JMJD7‐catalyzed hydroxylation were sufficient for these two substrates.
JMJD7 turnover assays for kinetic studies were performed in 96‐well polypropylene assay plates with 1.0 mL total reaction volume using a series of concentrations of the DRG1 peptide (0.1–5.0 μM), 2OG (20 μM), FAS (10 μM), LAA (100 μM). Reactions were initiated by the addition of JMJD7 (100 nM). MS‐analyses were performed using a RapidFire RF 365 high‐throughput sampling robot (Agilent) attached to an iFunnel Agilent 6550 accurate mass quadrupole time‐of‐flight (Q‐TOF) mass spectrometer operated in the positive ionization mode. The RapidFire RF 365 high‐throughput sampling robot was programmed to aspirate samples from the reaction mixture at the indicated time intervals. Assay samples were loaded onto a C4 solid phase extraction (SPE) cartridge and peptides were eluted using given previous protocols (Tumber et al., [2023]). The % conversion of the hydroxylation reaction were calculated from the ion chromatogram data by integrating peak areas using RapidFire Integrator 4.3.0 software (Agilent).

[4] = 10 μM 2OG, 10 μM FAS, 100 μM LAA
[5] = standard conditions: 2 μM JMJD7, 10 μM peptide, 10 μM 2OG
[6] = 10 μM 2OG, 10 μM FAS, 100 μM LAA, Tris pH 7.5, 2 h
[7] = 1.0 μM peptide, 50 nM JMJD7, SPE-MS time-course

T1 sequence (P0C870 whole entry, the tested form may be a part): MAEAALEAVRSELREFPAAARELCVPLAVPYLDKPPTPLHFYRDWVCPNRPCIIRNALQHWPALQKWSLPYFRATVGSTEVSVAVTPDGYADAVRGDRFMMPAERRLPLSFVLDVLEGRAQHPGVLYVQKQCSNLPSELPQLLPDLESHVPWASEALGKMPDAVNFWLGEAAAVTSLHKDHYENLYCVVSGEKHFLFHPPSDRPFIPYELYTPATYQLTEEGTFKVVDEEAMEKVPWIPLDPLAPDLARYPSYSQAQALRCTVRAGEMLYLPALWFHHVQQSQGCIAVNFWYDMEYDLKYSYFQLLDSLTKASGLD

## CC(C)C[C@H](NC(=O)CNC(=O)[C@H](CC(C)C)NC(=O)[C@H](Cc1c[nH]cn1)NC(=O)[C@H](Cc1c[nH]cn1)NC(=O)[C@H](C)NC(=O)[C@@H](NC(=O)[C@H](C)NC(=O)[C@H](Cc1ccncc1)NC(=O)[C@H](CC(N)=O)NC(=O)[C@H](CCCCN)NC(=O)[C@H](CCC(N)=O)NC(=O)[C@@H](NC(=O)[C@H](CCCNC(=N)N)NC(=O)[C@H](C)N)[C@@H](C)O)[C@@H](C)O)C(=O)N[C@@H](CC(C)C)C(=O)N[C@@H](CCCCN)C(=O)N[C@@H](C)C(=O)N[C@@H](CCCNC(=N)N)C(=O)N[C@@H](CC(C)C)C(=O)N[C@@H](C)C(=O)N[C@@H](CCCCN)C(=O)N[C@@H](CC(C)C)C(=O)N[C@@H](CCCNC(=N)N)C(=O)N[C@@H](CCCNC(=N)N)C(N)=O [DRG1‐4pyrA] (H-ARTQKN[4Pal]ATAHHLGLLKARLAKLRR-NH2)
[1]
  IC50: 15.2 µM

## ARTQKNAhpATAHHLGLLKARLAKLRR [DRG1‐Ahp, 25-mer DRG1 (16–40) peptide with Ahp at position 22]
[2]; 10 μM FAS, 100 μM LAA
  extent of hydroxylation by JMJD7 at higher 2OG concentration: did not manifest evidence for hydroxylation

## ARTQKNCysMeATAHHLGLLKARLAKLRR [DRG1‐CysMe, 25-mer DRG1 (16–40) peptide with CysMe at position 22]
[2]; [4]
  degree of oxidation (+16 Da) of cysteine/methionine analog peptides by JMJD7: oxidized relatively efficiently

## ARTQKNCysNHmeATAHHLGLLKARLAKLRR [DRG1‐CysNHMe, 25-mer DRG1 (16–40) peptide with γ-methylthialysine at position 22]
[2]; standard conditions: 2 μM JMJD7, 10 μM peptide, 10 μM 2OG, 10 μM FAS, 100 μM LAA, Tris pH 7.5, 2 h
  possibly stable hemithioacetal product detected by MS: 12%
[2]; [5]
  fate of the JMJD7 C3-hydroxylation product: fragmentation to form DRG1‐formylglycine and its hydrated products

## ARTQKND-LysATAHHLGLLKARLAKLRR [DRG1‐D‐Lys, 25-mer DRG1 (16–40) peptide with epimeric D-lysine at position 22]
[2]; 10 μM FAS, 100 μM LAA
  extent of hydroxylation by JMJD7 at higher 2OG concentration: ~ 6%
[2]; [6]
  extent of hydroxylation (+16 Da) by JMJD7: not hydroxylated within detection limits

## ARTQKNH[Nle]ATAHHLGLLKARLAKLRR [DRG1‐HNle, 25-mer DRG1 (16–40) peptide with hydroxynorleucine at position 22]
[3]; [7]
  relative rate / turnover in the time-course: turnover was low
[2]; 10 μM FAS, 100 μM LAA
  extent of hydroxylation by JMJD7 at higher 2OG concentration: ~ 56%
[2]; [6]
  extent of hydroxylation (+16 Da) by JMJD7: ~ 24%

## ARTQKNLysATAHHLGLLKARLAKLRR [DRG1‐Lys, 25-mer DRG1 fragment peptide (residues 16–40), C-terminal amide, Lys at position 22; JMJD7 substrate, reference compound]
[3]; 1.0 μM peptide, 50 nM JMJD7, SPE-MS time-course, 9 min
  hydroxylation within 9 min: ~ 90%
[3]
  k cat/K m: 155000 M⁻¹ s⁻¹
  k cat: 13.0 ± 0.36
  K m: 1.4 ± 0.59
[3]; increased substrate concentrations, 100 nM JMJD7, 20 μM 2OG, 10 μM FAS, 100 μM LAA, pH 7.5
  substrate inhibition of JMJD7: substrate inhibition of JMJD7 was observed
[2]; 10 μM FAS, 100 μM LAA
  extent of hydroxylation by JMJD7 at higher 2OG concentration: ~ 98%
[2]; [6]
  extent of hydroxylation (+16 Da) by JMJD7: ~ 78%

## ARTQKNLysEATAHHLGLLKARLAKLRR [DRG1‐LysE, 25-mer DRG1 (16–40) peptide with (E)-dehydrolysine at position 22]
[3]
  k cat/K m: 133000 M⁻¹ s⁻¹
  k cat: 24.7 ± 0.36
  K m: 3.1 ± 0.81
[2]; [6]
  extent of hydroxylation (+16 Da) by JMJD7: 90%

## ARTQKNLysMeATAHHLGLLKARLAKLRR [DRG1‐LysMe, 25-mer DRG1 (16–40) peptide with LysMe at position 22]
[2]; 10 μM FAS, 100 μM LAA
  extent of hydroxylation by JMJD7 at higher 2OG concentration: ~ 7%

## ARTQKNLysNATAHHLGLLKARLAKLRR [DRG1‐LysN, 25-mer DRG1 (16–40) peptide with γ-azalysine at position 22]
[3]; [7]
  relative rate / turnover in the time-course: oxidized more slowly than DRG1‐CysNH2
[2]; [5]
  fate of the JMJD7 C3-hydroxylation product: fragmentation to form DRG1‐formylglycine and its hydrated products

## ARTQKNMetATAHHLGLLKARLAKLRR [DRG1‐Met]
[3]; [7]
  relative rate / turnover in the time-course: turnover appeared to be low
[2]; [4]
  degree of oxidation (+16 Da) of cysteine/methionine analog peptides by JMJD7: ~ 86%

## ARTQKN[Met(O)]ATAHHLGLLKARLAKLRR [DRG1‐MetO]
[2]; [4]
  degree of oxidation (+16 Da) of cysteine/methionine analog peptides by JMJD7: showed no evidence for oxidation

## ARTQKN[SeMet]ATAHHLGLLKARLAKLRR [DRG1‐SeMet, 25-mer DRG1 (16–40) peptide with SeMet at position 22]
[2]; [4]
  degree of oxidation (+16 Da) of cysteine/methionine analog peptides by JMJD7: showed no evidence for oxidation

## ARTQKNhLysATAHHLGLLKARLAKLRR [DRG1‐hLys, 25-mer DRG1 (16–40) peptide with hLys at position 22]
[2]; 10 μM FAS, 100 μM LAA
  extent of hydroxylation by JMJD7 at higher 2OG concentration: ~ 5%
[2]; [6]
  extent of hydroxylation (+16 Da) by JMJD7: did not undergo hydroxylation within detection limits

## ARTQKNhMetATAHHLGLLKARLAKLRR [DRG1‐hMet, 25-mer DRG1 (16–40) peptide with homomethionine at position 22]
[2]; [4]
  degree of oxidation (+16 Da) of cysteine/methionine analog peptides by JMJD7: ~ 89%

## ARTQKNhSerATAHHLGLLKARLAKLRR [DRG1‐hSer, 25-mer DRG1 (16–40) peptide with hSer at position 22]
[2]; [4]
  degree of oxidation (+16 Da) of cysteine/methionine analog peptides by JMJD7: did also not undergo oxidation

## ARTQKNmeOhSerATAHHLGLLKARLAKLRR [DRG1‐meOhSer, 25-mer DRG1 (16–40) peptide with meOhSer at position 22]
[2]; [4]
  degree of oxidation (+16 Da) of cysteine/methionine analog peptides by JMJD7: showed no evidence for oxidation

## ARTQKNnArgATAHHLGLLKARLAKLRR [DRG1‐nArg, 25-mer DRG1 (16–40) peptide with nArg at position 22]
[2]; 10 μM FAS, 100 μM LAA
  extent of hydroxylation by JMJD7 at higher 2OG concentration: did not manifest evidence for hydroxylation
